Experimental data taken from ChEMBL document CHEMBL3627608, “Crystal structures of human RIP2 kinase catalytic domain complexed with ATP-competitive inhibitors: Foundations for understanding inhibitor selectivity” (Bioorg Med Chem, 2015).

Tests used:
Homo sapiens = organism: Homo sapiens; test: Inhibition of PKG2 (unknown origin) at 10 uM after 120 mins P33 radiolabeled kinase activity assay
[1] = molecular target: Serine/threonine-protein kinase pim-2 (Homo sapiens) (UniProt Q9P1W9); test: Inhibition of PIM2 (unknown origin) at 10 uM after 120 mins P33 radiolabeled kinase activity assay
[2] = molecular target: Mitogen-activated protein kinase kinase kinase 9 (Homo sapiens) (UniProt P80192); test: Inhibition of MLK1 (unknown origin) at 10 uM after 120 mins P33 radiolabeled kinase activity assay
[3] = molecular target: T1, Serine/threonine-protein kinase BRSK2 (Homo sapiens) (UniProt Q8IWQ3); test: Inhibition of BRSK2 (unknown origin) at 10 uM after 120 mins P33 radiolabeled kinase activity assay
T1 sequence (whole entry): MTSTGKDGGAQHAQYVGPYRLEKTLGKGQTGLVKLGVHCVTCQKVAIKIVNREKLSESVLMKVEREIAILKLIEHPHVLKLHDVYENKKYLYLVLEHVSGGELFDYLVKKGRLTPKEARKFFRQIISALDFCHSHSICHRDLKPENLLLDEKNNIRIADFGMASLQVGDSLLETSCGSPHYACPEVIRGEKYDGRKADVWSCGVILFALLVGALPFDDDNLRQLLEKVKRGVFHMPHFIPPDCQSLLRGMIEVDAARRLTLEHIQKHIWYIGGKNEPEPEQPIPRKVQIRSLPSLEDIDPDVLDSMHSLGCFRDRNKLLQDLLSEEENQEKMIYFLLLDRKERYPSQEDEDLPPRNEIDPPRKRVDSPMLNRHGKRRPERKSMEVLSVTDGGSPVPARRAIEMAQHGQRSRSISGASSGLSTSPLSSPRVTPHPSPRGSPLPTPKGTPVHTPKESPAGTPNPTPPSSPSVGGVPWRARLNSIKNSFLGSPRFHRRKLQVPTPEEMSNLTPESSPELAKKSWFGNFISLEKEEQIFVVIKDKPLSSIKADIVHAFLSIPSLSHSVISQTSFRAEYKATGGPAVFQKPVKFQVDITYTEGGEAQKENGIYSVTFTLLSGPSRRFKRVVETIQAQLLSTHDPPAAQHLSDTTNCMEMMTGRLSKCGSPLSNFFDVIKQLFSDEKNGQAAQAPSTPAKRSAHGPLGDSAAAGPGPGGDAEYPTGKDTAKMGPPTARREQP

[4] = molecular target: Glycogen synthase kinase-3 alpha (Homo sapiens) (UniProt P49840); test: Inhibition of GSK3alpha (unknown origin) at 10 uM after 120 mins P33 radiolabeled kinase activity assay
[5] = molecular target: Tyrosine-protein kinase Lck (Homo sapiens) (UniProt P06239); test: Inhibition of LCK (unknown origin) at 10 uM after 120 mins P33 radiolabeled kinase activity assay
[6] = molecular target: T2, Serine/threonine-protein kinase TAO2 (Homo sapiens) (UniProt Q9UL54); test: Inhibition of TAOK2 (unknown origin) at 10 uM after 120 mins P33 radiolabeled kinase activity assay
T2 sequence (whole entry): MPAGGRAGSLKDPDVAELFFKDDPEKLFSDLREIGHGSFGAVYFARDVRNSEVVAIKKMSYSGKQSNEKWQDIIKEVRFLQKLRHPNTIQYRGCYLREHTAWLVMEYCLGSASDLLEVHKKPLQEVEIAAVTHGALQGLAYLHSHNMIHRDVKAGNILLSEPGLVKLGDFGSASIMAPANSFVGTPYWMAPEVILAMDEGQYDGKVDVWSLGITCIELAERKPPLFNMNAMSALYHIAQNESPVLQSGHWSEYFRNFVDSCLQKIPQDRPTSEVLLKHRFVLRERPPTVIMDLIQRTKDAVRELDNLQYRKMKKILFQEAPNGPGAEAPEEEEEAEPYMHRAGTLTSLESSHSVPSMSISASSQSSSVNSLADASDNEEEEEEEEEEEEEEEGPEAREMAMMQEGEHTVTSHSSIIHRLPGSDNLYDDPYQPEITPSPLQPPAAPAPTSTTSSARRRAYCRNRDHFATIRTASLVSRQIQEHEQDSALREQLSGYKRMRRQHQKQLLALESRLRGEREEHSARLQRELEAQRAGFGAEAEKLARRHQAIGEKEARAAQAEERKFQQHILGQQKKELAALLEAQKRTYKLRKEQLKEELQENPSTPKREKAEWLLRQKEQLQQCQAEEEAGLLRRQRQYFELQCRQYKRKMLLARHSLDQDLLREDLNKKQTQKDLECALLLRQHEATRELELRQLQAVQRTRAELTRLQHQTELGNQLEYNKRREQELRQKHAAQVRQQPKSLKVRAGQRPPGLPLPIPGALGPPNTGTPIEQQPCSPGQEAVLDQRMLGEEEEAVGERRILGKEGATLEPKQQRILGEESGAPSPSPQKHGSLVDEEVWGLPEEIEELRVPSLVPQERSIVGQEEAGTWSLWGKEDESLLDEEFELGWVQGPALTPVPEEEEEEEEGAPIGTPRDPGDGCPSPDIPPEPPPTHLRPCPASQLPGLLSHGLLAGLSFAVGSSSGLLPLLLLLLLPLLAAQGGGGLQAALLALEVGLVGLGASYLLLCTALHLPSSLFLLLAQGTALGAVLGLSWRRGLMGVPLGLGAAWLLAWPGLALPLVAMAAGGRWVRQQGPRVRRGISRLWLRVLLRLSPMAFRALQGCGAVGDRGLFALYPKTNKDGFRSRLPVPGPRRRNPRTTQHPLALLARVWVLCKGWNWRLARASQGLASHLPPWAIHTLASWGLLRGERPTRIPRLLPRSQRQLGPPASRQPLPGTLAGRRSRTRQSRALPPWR

[7] = molecular target: MAP/microtubule affinity-regulating kinase 3 (Homo sapiens) (UniProt P27448); test: Inhibition of MARK3 (unknown origin) at 10 uM after 120 mins P33 radiolabeled kinase activity assay
[8] = molecular target: Maternal embryonic leucine zipper kinase (Homo sapiens) (UniProt Q14680); test: Inhibition of MELK (unknown origin) at 10 uM after 120 mins P33 radiolabeled kinase activity assay
Maternal embryonic leucine zipper kinase (Homo sapiens), sequence (Q14680 whole entry, looked up): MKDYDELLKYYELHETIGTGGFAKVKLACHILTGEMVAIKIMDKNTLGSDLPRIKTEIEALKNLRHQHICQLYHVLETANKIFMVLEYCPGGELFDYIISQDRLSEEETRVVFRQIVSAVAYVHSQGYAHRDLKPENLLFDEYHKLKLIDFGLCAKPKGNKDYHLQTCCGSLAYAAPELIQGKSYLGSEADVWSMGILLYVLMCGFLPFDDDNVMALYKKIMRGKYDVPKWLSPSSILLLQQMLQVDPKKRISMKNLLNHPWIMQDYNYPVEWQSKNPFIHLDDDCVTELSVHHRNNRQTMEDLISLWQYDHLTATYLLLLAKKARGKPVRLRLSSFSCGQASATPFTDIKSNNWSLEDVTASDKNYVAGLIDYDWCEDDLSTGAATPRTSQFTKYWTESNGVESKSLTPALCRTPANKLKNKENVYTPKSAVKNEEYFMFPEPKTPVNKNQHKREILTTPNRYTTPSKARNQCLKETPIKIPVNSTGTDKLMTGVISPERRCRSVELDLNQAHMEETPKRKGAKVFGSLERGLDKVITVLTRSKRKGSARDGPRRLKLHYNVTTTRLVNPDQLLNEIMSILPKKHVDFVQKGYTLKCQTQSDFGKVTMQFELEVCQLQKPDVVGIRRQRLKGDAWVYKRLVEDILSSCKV

MAP/microtubule affinity-regulating kinase 3 (Homo sapiens), sequence (P27448 whole entry, looked up): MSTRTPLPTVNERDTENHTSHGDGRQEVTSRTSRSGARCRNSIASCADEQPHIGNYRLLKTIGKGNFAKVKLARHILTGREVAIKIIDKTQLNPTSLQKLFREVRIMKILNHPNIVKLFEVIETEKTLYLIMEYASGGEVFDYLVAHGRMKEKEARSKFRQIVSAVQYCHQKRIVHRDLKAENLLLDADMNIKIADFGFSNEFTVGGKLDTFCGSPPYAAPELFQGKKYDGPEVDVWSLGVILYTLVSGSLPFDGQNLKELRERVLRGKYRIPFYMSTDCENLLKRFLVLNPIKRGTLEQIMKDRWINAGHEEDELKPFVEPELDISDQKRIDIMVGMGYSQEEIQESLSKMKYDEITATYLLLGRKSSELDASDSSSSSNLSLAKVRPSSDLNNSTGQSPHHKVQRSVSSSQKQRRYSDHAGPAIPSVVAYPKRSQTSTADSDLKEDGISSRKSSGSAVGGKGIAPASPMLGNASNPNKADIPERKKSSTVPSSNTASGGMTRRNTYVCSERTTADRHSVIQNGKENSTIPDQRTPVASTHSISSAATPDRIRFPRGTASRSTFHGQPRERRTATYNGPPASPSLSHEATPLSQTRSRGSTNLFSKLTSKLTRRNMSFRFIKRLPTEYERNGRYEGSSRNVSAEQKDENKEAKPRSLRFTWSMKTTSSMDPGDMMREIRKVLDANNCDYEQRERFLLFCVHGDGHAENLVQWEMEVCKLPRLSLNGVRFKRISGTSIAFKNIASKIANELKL
Mitogen-activated protein kinase kinase kinase 9 (Homo sapiens), sequence (P80192 whole entry, looked up): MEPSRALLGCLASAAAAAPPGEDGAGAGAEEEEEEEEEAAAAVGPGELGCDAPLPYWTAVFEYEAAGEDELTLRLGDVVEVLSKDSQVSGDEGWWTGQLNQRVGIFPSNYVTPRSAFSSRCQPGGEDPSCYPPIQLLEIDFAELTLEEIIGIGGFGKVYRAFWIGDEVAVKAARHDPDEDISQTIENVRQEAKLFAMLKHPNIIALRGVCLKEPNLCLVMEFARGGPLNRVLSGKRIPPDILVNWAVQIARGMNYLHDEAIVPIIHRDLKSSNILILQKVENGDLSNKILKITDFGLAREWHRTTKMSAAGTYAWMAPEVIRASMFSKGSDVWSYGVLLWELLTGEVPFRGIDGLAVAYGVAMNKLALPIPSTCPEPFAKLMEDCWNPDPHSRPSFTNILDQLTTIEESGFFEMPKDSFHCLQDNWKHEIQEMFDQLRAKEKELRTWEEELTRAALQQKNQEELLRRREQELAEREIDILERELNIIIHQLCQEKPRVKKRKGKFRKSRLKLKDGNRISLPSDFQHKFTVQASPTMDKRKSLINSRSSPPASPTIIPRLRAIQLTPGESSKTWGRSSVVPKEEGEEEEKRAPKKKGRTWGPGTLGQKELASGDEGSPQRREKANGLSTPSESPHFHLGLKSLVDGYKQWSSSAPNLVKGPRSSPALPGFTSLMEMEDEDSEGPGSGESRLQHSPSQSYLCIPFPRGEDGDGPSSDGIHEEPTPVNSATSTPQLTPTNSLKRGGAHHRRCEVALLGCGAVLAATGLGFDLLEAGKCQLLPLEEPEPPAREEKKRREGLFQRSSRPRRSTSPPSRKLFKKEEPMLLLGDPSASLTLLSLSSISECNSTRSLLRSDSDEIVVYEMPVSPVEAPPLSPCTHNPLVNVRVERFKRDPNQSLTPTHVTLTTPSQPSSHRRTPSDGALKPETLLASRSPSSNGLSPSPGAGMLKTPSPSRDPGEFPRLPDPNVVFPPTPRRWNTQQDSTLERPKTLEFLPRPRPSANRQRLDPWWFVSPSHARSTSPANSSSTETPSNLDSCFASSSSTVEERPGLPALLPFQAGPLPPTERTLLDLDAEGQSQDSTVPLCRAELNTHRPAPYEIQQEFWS
Glycogen synthase kinase-3 alpha (Homo sapiens), sequence (P49840 2-483 limits assumed): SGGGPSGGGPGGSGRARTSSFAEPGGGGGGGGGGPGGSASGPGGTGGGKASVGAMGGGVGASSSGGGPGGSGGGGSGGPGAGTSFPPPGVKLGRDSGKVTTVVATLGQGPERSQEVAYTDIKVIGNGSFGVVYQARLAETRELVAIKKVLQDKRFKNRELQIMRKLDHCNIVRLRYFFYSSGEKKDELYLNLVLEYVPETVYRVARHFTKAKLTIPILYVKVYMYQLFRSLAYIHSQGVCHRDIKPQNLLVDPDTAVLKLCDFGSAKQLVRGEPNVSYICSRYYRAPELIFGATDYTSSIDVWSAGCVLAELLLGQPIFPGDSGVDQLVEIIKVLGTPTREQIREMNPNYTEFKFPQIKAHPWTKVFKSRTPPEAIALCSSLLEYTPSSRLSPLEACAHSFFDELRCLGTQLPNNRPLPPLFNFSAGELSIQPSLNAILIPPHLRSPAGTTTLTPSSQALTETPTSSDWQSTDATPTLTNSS
Serine/threonine-protein kinase pim-2 (Homo sapiens), sequence (Q9P1W9 whole entry, looked up): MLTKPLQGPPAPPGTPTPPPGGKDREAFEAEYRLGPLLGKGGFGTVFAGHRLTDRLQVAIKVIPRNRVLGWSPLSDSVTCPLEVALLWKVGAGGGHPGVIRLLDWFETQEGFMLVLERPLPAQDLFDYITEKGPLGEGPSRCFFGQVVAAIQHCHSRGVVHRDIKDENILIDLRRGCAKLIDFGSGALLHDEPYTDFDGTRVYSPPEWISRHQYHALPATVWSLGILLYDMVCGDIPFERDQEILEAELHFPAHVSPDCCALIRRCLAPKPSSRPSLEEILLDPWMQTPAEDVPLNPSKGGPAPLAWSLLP
Tyrosine-protein kinase Lck (Homo sapiens), sequence (P06239 2-509 limits assumed): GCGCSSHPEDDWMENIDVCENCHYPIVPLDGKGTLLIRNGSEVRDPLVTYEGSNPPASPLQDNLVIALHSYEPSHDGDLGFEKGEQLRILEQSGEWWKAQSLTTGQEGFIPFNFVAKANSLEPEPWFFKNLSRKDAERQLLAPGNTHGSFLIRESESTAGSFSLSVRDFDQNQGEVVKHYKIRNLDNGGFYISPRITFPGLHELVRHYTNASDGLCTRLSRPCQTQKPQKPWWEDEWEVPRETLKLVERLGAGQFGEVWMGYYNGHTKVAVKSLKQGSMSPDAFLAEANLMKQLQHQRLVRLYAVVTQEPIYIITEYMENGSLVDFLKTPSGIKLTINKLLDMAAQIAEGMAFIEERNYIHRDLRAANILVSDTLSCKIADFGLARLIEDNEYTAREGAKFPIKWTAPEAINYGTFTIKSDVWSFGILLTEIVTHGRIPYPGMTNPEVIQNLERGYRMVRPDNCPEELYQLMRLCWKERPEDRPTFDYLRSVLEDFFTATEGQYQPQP

## CS(=O)(=O)c1cccc(Nc2nccc(-c3sc(N4CCOCC4)nc3-c3cccc(NS(=O)(=O)c4c(F)cccc4F)c3)n2)c1
Homo sapiens
  inhibition: 8.73%
[1]
  inhibition: 6.09%
[2]
  inhibition: 94.4%
[3]
  inhibition: 34%
[4]
  inhibition: 98.9%
[5]
  inhibition: 99.9%
[6]
  inhibition: 77.8%
[7]
  inhibition: 4.8%
[8]
  inhibition: 69.3%

## COCCNC(=O)c1ccc2c(c1)nc(-c1cnc(-c3ccc(Cl)cc3)[nH]1)n2CCOC
Homo sapiens
  inhibition: -5.6%
[1]
  inhibition: 0.63%
[2]
  inhibition: 11%
[3]
  inhibition: 26.4%
[4]
  inhibition: 5.43%
[5]
  inhibition: 52.8%
[6]
  inhibition: 1.71%
[7]
  inhibition: -3.77%
[8]
  inhibition: 8.47%

## CC(C)(C)c1cc(NC(=O)Nc2ccc(Oc3ccncc3)cc2)no1
Homo sapiens
  inhibition: 6.69%
[1]
  inhibition: 3.72%
[2]
  inhibition: 29.7%
[3]
  inhibition: 18.2%
[4]
  inhibition: 37.8%
[5]
  inhibition: 95.3%
[6]
  inhibition: 96.7%
[7]
  inhibition: -1.36%
[8]
  inhibition: -0.03%
